What all share (conditions): incubation time: 72 h
For test [1], the system named is MDA-MB-453. Put plainly: normalised viability (% of control), CellTiter-Blue; higher = more viable cells (about 100 = DMSO control). How it is done:
(§1)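 DSRT, CellTiter-Blue viability, 72 h incubation. Signal is normalised to DMSO and benzethonium chloride controls. Value is the normalised response at dose 6.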
In general terms: The colour change of resazurin is a common sign of viable cells or microbes.

Test [2] concerns CAL-51. Described as above. How it is done:
as §1

The test system of test [3] is DU-4475. Described as above. How it is done:
as §1

Test [4] has as its system CAL-148. The description is as above. The method, then:
as §1

Test [5] relates to HDQ-P1. Described as above. The method, then:
as §1

For test [6], the system named is CAL-85-1. The description is as above. How it is done:
as §1

Test [7] deals with HCC1143. The experiment in a line: normalised response (% of control), CellTox Green; higher = less cell death (100 = DMSO, 0 = benzethonium chloride kill control). Put shortly:
(§2)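 In 384-well plates holding compound at 5 concentrations in 10-fold steps over a 10,000-fold range specific to each compound, breast cancer cell lines were seeded as 20 µl suspension and incubated 72 h. CellTox Green fluorescence was measured at 485/520 nm, after which CellTiter-Glo luminescence was measured following 10 min at room temperature. Plate signals were normalised to 0.1 % DMSO (100) and a positive kill control (0), and each value is the normalised signal at a single concentration.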

The test system of test [8] is HCC1599. Described as above. Put shortly: as §2
Test [9] relates to MDA-MB-453. The description is as above. Put shortly:
as §2

Test [10] has as its system CAL-120. The description is as above. In outline: as §2
Test [11] has as its system CAL-51. Described as above. Put shortly: as §2
For test [12], the system named is Hs578T. Described as above. Put shortly: as §2
Test [13] deals with MDA-MB-468. The description is as above. Put shortly: as §2
Test [14] has as its system DU-4475. The description is as above. In outline: as §2
For test [15], the system named is BT-549. Described as above. Put shortly: as §2
In test [16] the test system is MDA-MB-436. The description is as above. In outline: as §2
Test [17] has as its system CAL-148. Described as above. Put shortly: as §2
Test [18] has as its system HDQ-P1. Described as above. Put shortly: as §2
In test [19] the test system is BT-474. The description is as above. Put shortly: as §2
Test [20] has as its system HCC1937. The test is described as above. Put shortly:
as §2

Test [21] has as its system MCF-10A. Described as above. In outline: as §2
Test [22] concerns MDA-MB-231. Described as above. In outline:
as §2

In test [23] the test system is MFM-223. Described as above. Put shortly:
as §2

The test system of test [24] is CAL-85-1. The test is described as above. In outline: as §2
The test system of test [25] is HCC1143. Put plainly: normalised response (% of control), CellTiter-Glo; higher = more viable cells (100 = DMSO, 0 = benzethonium chloride kill control). How it is done: (§3)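 DSRT, 72 h incubation, CellTox Green / CellTiter-Glo readout. Signal is normalised to DMSO and benzethonium chloride controls. Value is the normalised response at the highest dose.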
For orientation: In ATP-based viability assays light output follows the ATP content of the culture.

The test system of test [26] is HCC1599. Described as above. The method, then:
as §3

Test [27] concerns MDA-MB-453. The description is as above. The method, then: as §3
Test [28] deals with CAL-120. Described as above. The method, then: as §3
Test [29] relates to CAL-51. The test is described as above. How it is done: as §3
Test [30] concerns Hs578T. The test is described as above. How it is done: as §3
In test [31] the test system is MDA-MB-468. The description is as above. The method, then:
as §3

The subject of test [32] is DU-4475. The description is as above. How it is done:
as §3

For test [33], the system named is BT-549. Described as above. How it is done: as §3
Test [34] concerns MDA-MB-436. The test is described as above. The method, then: as §3
Test [35] concerns CAL-148. Described as above. How it is done: as §3
Test [36] has as its system HDQ-P1. The test is described as above. How it is done: as §3
For another test, the system named is SK-BR-3. The description is as above. How it is done:
as §3

For test [37], the system named is BT-474. Described as above. The method, then: as §3
Test [38] relates to HCC1937. The test is described as above. The method, then: as §3
Test [39] concerns MCF-10A. The description is as above. How it is done: as §3
In test [40] the test system is MDA-MB-231. The description is as above. The method, then: as §3
Test [41] relates to MFM-223. The description is as above. How it is done: as §3
Test [42] relates to CAL-85-1. The test is described as above. How it is done:
as §3

For `CN1CCC(COc2cnc(-c3cccc(Cn4nc(-c5cccc(C#N)c5)ccc4=O)c3)nc2)CC1` (300 nM), the normalised viability with MDA-MB-453 [1] came out at 94.5%; in the test on CAL-51 [2] it was 101%; in the test on DU-4475 [3], 105%; in the test with CAL-148 [4] it was 86.9%; in the test with HDQ-P1 [5], 81.3%; in the test with CAL-85-1 [6], 93.4%.
In the case of `CN(C)C/C=C/C(=O)Nc1cc2c(Nc3ccc(F)c(Cl)c3)ncnc2cc1O[C@H]1CCOC1` [Afatinib] (300 nM), the normalised viability worked out at 36.5% in the test on MDA-MB-453 [1]; 101% in the test on CAL-51 [2]; 84.6% with DU-4475 [3]; 74.2% with CAL-148 [4]; 46.1% with HDQ-P1 [5]; 52.9% in the test on CAL-85-1 [6].
With `COc1cc(Nc2ncc3c(n2)-c2ccc(Cl)cc2C(c2c(F)cccc2OC)=NC3)ccc1C(=O)O` [Alisertib] (10000 nM), the normalised response in the test with HCC1143 [7] turned out to be 76%; with HCC1599 [8] it was 93.1%; in the test with MDA-MB-453 [9], 70.1%; in the test with CAL-120 [10], 96.5%; with CAL-51 [11] it was 11.4%; in the test with Hs578T [12] it was 114%. For the same compound, the normalised response with MDA-MB-468 [13] is -5.36%; in the test with DU-4475 [14] it was 94%; in the test on BT-549 [15] it was 63%; in the test on MDA-MB-436 [16], 78.5%; in the test with CAL-148 [17], 63.4%; in the test on HDQ-P1 [18], 94.7%. For the same compound, the normalised response with BT-474 [19] is 43.6%; in the test on HCC1937 [20] it was 31.6%; with MCF-10A [21] it was -35.5%; in the test on MDA-MB-231 [22], 79.3%; in the test with MFM-223 [23], 77.6%; in the test on CAL-85-1 [24], 91.2%. Besides, the normalised response stood at 61.9% with HCC1143 [25]; 81.5% in the test with HCC1599 [26]; 122% with MDA-MB-453 [27]; 62.2% in the test on CAL-120 [28]; 43.5% with CAL-51 [29]; 66.9% with Hs578T [30]. For the same compound, the normalised response with MDA-MB-468 [31] was found to be 24.1%; in the test on DU-4475 [32] it was 74%; with BT-549 [33], 37.2%; with MDA-MB-436 [34], 58.7%; in the test with CAL-148 [35] it was 49.7%; in the test on HDQ-P1 [36], 60.5%. Moreover, the normalised response in the test on SK-BR-3 is 61.5%; in the test with BT-474 [37], 62%; with HCC1937 [38] it was 64.5%; with MCF-10A [39], 61.4%; in the test on MDA-MB-231 [40] it was 64.5%; with MFM-223 [41], 36.7%. In the test on CAL-85-1 [42], the normalised response worked out at 90.5%.
With `CN1CC[C@H](c2c(O)cc(O)c3c(=O)cc(-c4ccccc4Cl)oc23)[C@H](O)C1` [Alvocidib] (300 nM), the normalised viability in the test with MDA-MB-453 [1] was determined as 32.7%; in the test on CAL-51 [2], 31.6%; in the test with DU-4475 [3], 1.07%; with CAL-148 [4] it was 17.5%; in the test on HDQ-P1 [5] it was 24.5%; in the test with CAL-85-1 [6], 17.3%.
Turning to `Nc1nc(Cl)nc2c1ncn2[C@H]1C[C@H](O)[C@@H](CO)O1` [Cladribine] (30 nM), the normalised viability came to 107% in the test with MDA-MB-453 [1]; 109% in the test with CAL-51 [2]; 101% in the test on DU-4475 [3]; 108% in the test with CAL-148 [4]; 90.2% in the test on HDQ-P1 [5]; 102% in the test on CAL-85-1 [6].
Take `Nc1ccn([C@@H]2O[C@H](CO)[C@@H](O)[C@@H]2O)c(=O)n1` [Cytarabine] (300 nM): the normalised viability with MDA-MB-453 [1] amounted to 87.5%; in the test on CAL-51 [2], 51.2%; in the test with DU-4475 [3], 72.6%; in the test with CAL-148 [4] it was 42.2%; in the test on HDQ-P1 [5], 75.1%; in the test on CAL-85-1 [6], 89.2%.
Turning to `Cc1c2oc3c(C)ccc(C(=O)N[C@@H]4C(=O)N[C@H](C(C)C)C(=O)N5CCC[C@H]5C(=O)N(C)CC(=O)N(C)[C@@H](C(C)C)C(=O)O[C@@H]4C)c3nc-2c(C(=O)N[C@@H]2C(=O)N[C@H](C(C)C)C(=O)N3CCC[C@H]3C(=O)N(C)CC(=O)N(C)[C@@H](C(C)C)C(=O)O[C@@H]2C)c(N)c1=O` [Dactinomycin] (30 nM), the normalised viability in the test with MDA-MB-453 [1] worked out at 7.48%; in the test with CAL-51 [2], 4.91%; in the test on DU-4475 [3] it was 0%; in the test on CAL-148 [4], 1.36%; in the test on HDQ-P1 [5], 16.6%; in the test with CAL-85-1 [6], 4.36%.
Consider `COc1cccc2c1C(=O)c1c(O)c3c(c(O)c1C2=O)C[C@@](O)(C(=O)CO)C[C@@H]3O[C@H]1C[C@H](N)[C@H](O)[C@H](C)O1` [Doxorubicin] (30 nM), for which the normalised viability was 100% in the test with MDA-MB-453 [1]; 87.1% in the test with CAL-51 [2]; 55% in the test on DU-4475 [3]; 58.7% in the test with CAL-148 [4]; 75.2% with HDQ-P1 [5]; 92.2% in the test with CAL-85-1 [6].
For the compound `Cc1ccc(F)c(NC(=O)Nc2ccc(-c3cccc4[nH]nc(N)c34)cc2)c1` [Linifanib] (30 nM), the normalised viability with MDA-MB-453 [1] is 96.4%; in the test on CAL-51 [2] it was 107%; in the test with DU-4475 [3], 116%; with CAL-148 [4], 94.1%; in the test on HDQ-P1 [5] it was 96.2%; in the test on CAL-85-1 [6], 118%.

These data come from the supplement of paper PMC4862054.
